Source: patent US8048916B2, “Ester compound and use thereof” (Sumitomo Chemical Company, Limited, priority 2007, dated 2011)

Tested on: houseflies
Assay: Test Example 2: knock-down test on houseflies in a 70 cm cubic chamber (KT50)
Type: in vivo, housefly
Details: 0.00625% (w/v), 0.7 ml sprayed into 70 cm cubic chamber, knock-down counted until 10 minutes
Experimental: Each of the compositions of the compounds (1) and (2) of the present invention obtained by Formulation Example 7 was diluted with mixed liquid of dichloromethane/deodorized kerosine=1/9 (w/w) so that the effective ingredient concentration became 0.00625% (w/v) to prepare a test solution.
Ten houseflies were released in a cubic chamber having a side of 70 cm to spray 0.7 ml of the above-mentioned oil-based preparation into the chamber through a small window on the side face of the chamber at a spray pressure of 0.9 kg/cm^2 with a spray gun. Then, the number of houseflies knocked down was counted with time until 10 minutes later (two repetitions each). The effect was evaluated with 4 grades of ⊙ to × as described below by means of a KT50 value calculated from the obtained results.
As a control test, the similar tests were performed by using as comparative reference compounds 2,3,5,6-tetrafluoro-4-methoxymethylbenzyl (1R,3S)-3-((E)-2-cyano-2-fluorovinyl)-2,2-dimethylcyclopropanecarboxylate

SMILES | Efficacy (grade by KT50 value)
COCc1c(F)c(F)c(COC(=O)[C@@H]2C(/C=C(/Cl)C#N)C2(C)C)c(F)c1F (stereo in doubt) [compound (2), 2,3,5,6-tetrafluoro-4-methoxymethylbenzyl (1R,3S)-3-((E)-2-chloro-2-cyanovinyl)-2,2-dimethylcyclopropanecarboxylate] | ⊙ (KT50 value is less than 2 minutes)
COCc1c(F)c(F)c(COC(=O)[C@@H]2C(C=C(F)C#N)C2(C)C)c(F)c1F (stereo in doubt) [control compound (B), 2,3,5,6-tetrafluoro-4-methoxymethylbenzyl (1R,3S)-3-((Z)-2-cyano-2-fluorovinyl)-2,2-dimethylcyclopropanecarboxylate] | Δ (KT50 value is 3 minutes or more and less than 4 minutes)
COCc1c(F)c(F)c(COC(=O)[C@@H]2C(C=C(F)C#N)C2(C)C)c(F)c1F (stereo in doubt) [control compound (A), 2,3,5,6-tetrafluoro-4-methoxymethylbenzyl (1R,3S)-3-((E)-2-cyano-2-fluorovinyl)-2,2-dimethylcyclopropanecarboxylate] | X (KT50 value is 4 minutes or more)
COCc1c(F)c(F)c(COC(=O)[C@@H]2C(/C=C(\Cl)C#N)C2(C)C)c(F)c1F (stereo in doubt) [compound (1), 2,3,5,6-tetrafluoro-4-methoxymethylbenzyl (1R,3S)-3-((Z)-2-chloro-2-cyanovinyl)-2,2-dimethylcyclopropanecarboxylate] | ◯ (KT50 value is 2 minutes or more and less than 3 minutes)
